Target: T1, SARS-CoV-2 3CL Protease (3C-like protease, Mpro, 3CLpro) (Severe acute respiratory syndrome coronavirus 2, UniProt P0DTD1)
T1 construct: gene rep; full-length mature nsp5 a.a; supplier apparently BPS Bioscience
Assay: biochemical

`N[C@@H](CC(=O)N1CCn2c(nnc2C(F)(F)F)C1)Cc1cc(F)c(F)cc1F` [sitagliptin] was tested, and the IC50 was 6.914 ± 0.034 µM.

From article PMC8025909, “Repurposing of Sitagliptin- Melittin Optimized Nanoformula against SARS-CoV-2; Antiviral Screening and Molecular Docking Studies” (Pharmaceutics, 2021)
